# Patent US20240417688A1, “METHODS AND SYSTEMS FOR ADIPOCYTES DIFFERENTIATION” (priority 2021, published 2024)
# System: Mesenchymal Stem cells (MSCs)
# Assay: Oil Red O staining and quantification of adipogenic differentiation of MSCs in 2D culture
# Format: cell-based
# Settings: FIG. 3; plate reader
# Method: Palmitoleic, erusic, elaidic, and oleic acids are diluted to 20 mM concentration in ethanol absolute. Each FFA is prepared separately, following which, all […] FFAs are mixed together at equal volumes to create the FFA stock mix.
# The stock mix is then added to cell growth medium at a concentration of 100 uM per FFA (dilution of 1:50 from stock mix).
# Food grade sunflower lecithin is suspended in PBS 1× at 50 mg/ml concentration, and the suspension is sonicated at medium speed for 1-2 min, to then reach a homogenized solution then filtered through a 0.22 μm filter. The lecithin emulsion is added to cell growth medium at a concentration of 1 mg/ml (dilution of 1:50 from stock solution).
# The two mediums were refreshed every 3 days and Oil red O quantification was performed on day 8 of contact.
# It is noted, that high cell density can cause a curling effect that produced a cell aggregate, reveling underlying cells. A. (negative control culture)—The cell aggregate falsely stained by ORO (A2); the aggregation reviles few cells on the surface of the well (A1). B. (4FFAs+Insulin treatment) Cells produce a sheet that detaches from the surface (B1), with underlying differentiating cells (B3). C. […]
# Turning now to FIG. 3, where Oil Red O (ORO) quantification was carried out after extraction using 2-propanol. ORO was extracted and quantified by absorption reading in a plate reader at 492 nm. […]
substance,measurement,value
insulin,"Oil Red O (ORO) quantity, absorption at 492 nm after 2-propanol extraction, versus control",no statistical difference than control
